According to US5023275A, “S-substituted beta-thioacrylamide biocides and fungicides” (Rohm and Haas Company, priority 1990, dated 1991):
Converted amounts (≈) assume the structure as drawn. Read-outs that look alike come from different tables or passages of the source.

Key:
[1] = system: Erysiphe graminis (f. sp. tritici); conditions: in vivo
[2] = system: Candida albicans (C.alb); assay: Alternate Minimum Inhibitory Concentration test, C.alb (Table 7); assay type: cell-based; conditions: TSB, 72 hours, 30° C.
[3] = system: Pseudoperonospora cubensis; conditions: in vivo
[4] = system: Pellicularia filamentosa (f. sp. sasiki); conditions: in vivo
[5] = system: Puccinia graminis (f. sp. tritici Race 15B-2); assay type: in vivo; conditions: wheat, two weeks
[6] = system: Pseudomonas fluorescens (Ps.fl); assay: Alternate Minimum Inhibitory Concentration test, Ps.fl (Table 7); assay type: cell-based; conditions: TSB, 72 hours, 30° C.
Protocol: From this solution, 100 μl was transferred to the first row of two microtiter plate columns. […] Inoculation was accomplished by diluting a 24 hr Ps fl culture, four mls per 36 mls of phosphate buffer solution. A Dynatech autoinoculator was used to transfer 1.5 μl of this cell suspension to the microtiter plates.

[7] = system: Phytophthora infestans; assay type: in vivo; conditions: tomato, 4 days after inoculation
[8] = system: Piricularia oryzae; assay type: in vivo; conditions: rice, 7 to 8 days after inoculation
[9] = system: Escherichia coli (E.c); assay: Alternate Minimum Inhibitory Concentration test, E.c (Table 7); assay type: cell-based; conditions: TSB, 72 hours, 30° C.
[10] = system: Aureobasidium pullulans (A.p); assay: Alternate Minimum Inhibitory Concentration test, A.p (Table 7); assay type: cell-based; conditions: TSB, 72 hours, 30° C.
[11] = system: Aspergillus niger (A.n); assay: Alternate Minimum Inhibitory Concentration test, A.n (Table 7); assay type: cell-based; conditions: TSB, 72 hours, 30° C.
[12] = system: Pseudomonas aerugenosa (Ps.ae); assay: Alternate Minimum Inhibitory Concentration test, Ps.ae (Table 7); assay type: cell-based; conditions: TSB, 72 hours, 30° C.
[13] = system: Staphylococcus aureus (S.a); assay: Alternate Minimum Inhibitory Concentration test, S.a (Table 7); assay type: cell-based; conditions: TSB, 72 hours, 30° C.
[14] = system: Escherichia coli (E.c); assay: MIC, broth two-fold serial dilution test, E.c (Table 6); assay type: cell-based; conditions: two-fold serial dilution in broth, 500 to 4 ppm
Text: (§1) A minimum inhibitory concentration (MIC) value is obtained using a broth, two-fold serial dilution test performed as follows: […] A volume of the stock solution is dispensed into culture media to give an initial starting test concentration of 500 ppm compound. When the test is ready to be done, each vessel in the dilution series, except the first vessel, contains an equal volume of compound free broth. The first vessel contains twice the volume of broth with the starting concentration of test compound. One half of the broth from the first vessel is transferred to the second vessel. After being mixed, one half the resulting volume is removed from the second vessel and transferred to the third vessel. […] Each vessel is then inoculated with a cell suspension of the appropriate test organism. Bacteria are grown in broth and fungi on agar […] for a time and at a temperature appropriate to the species being tested. At the end of the growth period, the broth is vortexed to disperse the cells. In the case of fungi, the spores are harvested by pipetting water onto the slant and dislodging the spores with a sterile loop. The cell/spore suspension is standardized by controlling incubation time, temperature, and the volume of the diluent. The suspension is then used to inoculate the vessels containing the broth compound. The vessels are then incubated at the appropriate temperature. […]

[15] = system: Pseudomonas fluorescens; assay: Speed of Kill (SOK) Test, 4 hours (Table 6); assay type: cell-based; conditions: Ps. fluorescens in synthetic hard water, 30° C., read-out: SOK: concentration at which compound killed >99.999% of the cells
Text: The Speed of Kill (SOK) Test measures the loss of cell viability in an aqueous suspension of bacterial cells during a four hour period when these cells are contacted with a defined concentration of the test compound in synthetic hard water (SHW). A stock solution or dispersion of the test compound, typically at a concentration of 1%, is made in a 5:3:2 solvent solution of acetone, methanol, and water. The SHW is made by taking one liter of sterile deionized water and adding the following solutions to it:
1. 2 ml of a solution of 31.74 g of MgCl2 and 73.99 g of CaCl2 in 1000 ml. of sterile distilled water which has been heat sterilized.
2. 4 ml of a solution of 56.03 g of NaHCO3 in 1000 ml of water which has been filter sterilized.
The combined solution is then filter sterilized to yield the SHW. A volume of the stock solution is dispensed into the SHW to give an initial test compound starting concentration of 500 ppm.
When the test is ready to be run, each vessel in the dilution series, except the first vessel, contains an equal volume of the SHW mixture with the test compound. The first vessel contains twice the volume of SHW with the starting concentration of test compound. One half of the SHW from the first vessel is transferred to the second vessel. After being mixed, one half the resulting volume is removed from the second vessel and transferred to the third vessel. […]

[16] = system: Staphylococcus aureus (S.a); assay: MIC, broth two-fold serial dilution test, S.a (Table 6); assay type: cell-based; conditions: two-fold serial dilution in broth, 500 to 4 ppm
Text: as §1

[17] = system: Pseudomonas fluorescens (Ps.fl); assay: MIC, broth two-fold serial dilution test, Ps.fl (Table 6); assay type: cell-based; conditions: two-fold serial dilution in broth, 500 to 4 ppm
Text: as §1

[18] = system: Aspergillus niger (A.n); assay: MIC, broth two-fold serial dilution test, A.n (Table 6); assay type: cell-based; conditions: two-fold serial dilution in broth, 500 to 4 ppm
Text: as §1

[19] = system: Aureobasidium pullulans (A.p); assay: MIC, broth two-fold serial dilution test, A.p (Table 6); assay type: cell-based; conditions: two-fold serial dilution in broth, 500 to 4 ppm
Text: as §1

[20] = system: Pseudomonas aerugenosa (Ps.ae); assay: MIC, broth two-fold serial dilution test, Ps.ae (Table 6); assay type: cell-based; conditions: two-fold serial dilution in broth, 500 to 4 ppm
Text: as §1

[21] = system: Puccinia recondita (f. sp. tritici Races PKB and PLD); conditions: in vivo

CC(=O)C(S/C=C\C(=O)NCc1ccccc1)C(C)=O [Example 2, N-benzyl-cis-3-thio-(1-acetylpropan-2-on-1-yl)acrylamide]
% Control WPM [1]: 0% | MIC [2]: 31 to 63 µg/mL (≈ 106 to 216 µM) | % Control CDM [3]: 70% | % Control RSB [4]: 0% | % Control WSR ([5]; application rate 300 ppm): 40% | MIC [6]: > 500 µg/mL | % Control TLB ([7]; application rate 300 ppm): 0% | % Control RB ([8]; application rate 300 ppm): 0% | MIC [9]: 63 to 125 µg/mL (≈ 216 to 429 µM) | MIC [10]: 31 µg/mL (≈ 106 µM) | MIC [11]: 125 to 500 µg/mL (≈ 429 to 1720 µM) | MIC [12]: 500 µg/mL (≈ 1720 µM) | MIC [13]: 31 µg/mL (≈ 106 µM)

CC(=O)C(S/C=C\C(=O)NCc1ccc(Cl)cc1)C(C)=O [Example 4, N-(p-chlorobenzyl)-cis-3-thio-(1-acetylpropan-2-on-1-yl)-acrylamide]
% Control WPM [1]: 0% | MIC [2]: 63 µg/mL (≈ 193 µM) | % Control CDM [3]: 95% | % Control RSB [4]: 0% | % Control WSR ([5]; application rate 300 ppm): 30% | MIC [6]: > 500 µg/mL | % Control TLB ([7]; application rate 300 ppm): 15% | % Control RB ([8]; application rate 200 ppm): 89% | MIC [9]: 63 µg/mL (≈ 193 µM) | MIC [10]: 16 µg/mL (≈ 49.1 µM) | MIC [11]: 31 to 500 µg/mL (≈ 95.1 to 1530 µM) | MIC [12]: > 500 µg/mL | MIC [13]: 31 µg/mL (≈ 95.1 µM)

CC(=O)C(S/C(Cl)=C(/C)C(=O)Nc1ccccc1)C(C)=O [Example 5, N-phenyl-2-methyl-3-chloro-cis-3-thio-(1-acetylpropan-2-on-1-yl)acrylamide]
% Control WPM [1]: 0% | MIC [14]: < 4 µg/mL | MBC [15]: < 4 µg/mL | MIC [16]: < 4 µg/mL | MIC [2]: 16 µg/mL (≈ 49.1 µM) | MIC [17]: < 4 µg/mL | MIC [18]: < 4 µg/mL | % Control CDM [3]: 49% | MIC [19]: 32 µg/mL (≈ 98.2 µM) | % Control WSR ([5]; application rate 100 ppm): 50% | MIC [20]: 8 µg/mL (≈ 24.6 µM) | MIC [6]: 16 µg/mL (≈ 49.1 µM) | % Control TLB ([7]; application rate 100 ppm): 35% | % Control RB ([8]; application rate 100 ppm): 50% | MIC [9]: < 4 µg/mL | MIC [10]: 16 µg/mL (≈ 49.1 µM) | MIC [11]: < 4 µg/mL | MIC [12]: 16 to 31 µg/mL (≈ 49.1 to 95.1 µM) | MIC [13]: 8 µg/mL (≈ 24.6 µM)

CC(=O)C(S/C(Cl)=C\C(=O)Nc1ccc(Cl)cc1)C(C)=O [Example 6, N-(p-chlorophenyl)-3-chloro-cis-3-thio-(1-acetylpropan-2-on-1-yl)acrylamide]
% Control WPM [1]: 0% | % Control WLR [21]: 50% | % Control CDM [3]: 85% | % Control RSB [4]: 0% | MIC [6]: > 500 µg/mL | % Control TLB ([7]; application rate 100 ppm): 0% | % Control RB ([8]; application rate 100 ppm): 50% | MIC [11]: > 500 µg/mL

CC(=O)C(S/C(Cl)=C(/C)C(=O)Nc1ccc(Cl)cc1)C(C)=O [Example 1, N-(p-Chlorophenyl)-2-methyl-3-chloro-cis-3-thio-(1-acetylpropan-2-on-1-yl)acrylamide]
% Control WPM [1]: 0% | MIC [14]: < 4 µg/mL | MBC [15]: 32 µg/mL (≈ 88.8 µM) | MIC [16]: < 4 µg/mL | MIC [2]: < 4 µg/mL | MIC [17]: < 4 µg/mL | MIC [18]: < 4 µg/mL | % Control CDM [3]: 100% | MIC [19]: < 4 µg/mL | % Control RSB [4]: 0% | % Control WSR ([5]; application rate 300 ppm): 70% | MIC [20]: < 4 µg/mL | MIC [6]: 4 to 16 µg/mL (≈ 11.1 to 44.4 µM) | % Control TLB ([7]; application rate 300 ppm): 90% | % Control RB ([8]; application rate 200 ppm): 80% | MIC [9]: < 4 µg/mL | MIC [10]: < 4 µg/mL | MIC [11]: 4 to 8 µg/mL (≈ 11.1 to 22.2 µM) | MIC [12]: 8 µg/mL (≈ 22.2 µM) | MIC [13]: < 4 µg/mL

CC(=O)C(S/C=C(/C)C(=O)Nc1ccc(Cl)cc1)C(C)=O [Example 7, N-(p-chlorophenyl)-2-methyl-cis-3-thio-(1-acetylpropan-2-on-1-yl)acrylamide]
% Control WPM [1]: 60% | % Control WLR [21]: 50% | MIC [2]: 16 µg/mL (≈ 49.1 µM) | % Control CDM [3]: 0% | % Control RSB [4]: 0% | MIC [6]: > 500 µg/mL | % Control TLB ([7]; application rate 100 ppm): 0% | % Control RB ([8]; application rate 100 ppm): 50% | MIC [9]: 63 to 125 µg/mL (≈ 193 to 384 µM) | MIC [10]: 4 to 8 µg/mL (≈ 12.3 to 24.6 µM) | MIC [11]: 31 to 63 µg/mL (≈ 95.1 to 193 µM) | MIC [12]: > 500 µg/mL | MIC [13]: 125 µg/mL (≈ 384 µM)

CC(=O)C(S/C=C\C(=O)NCCc1ccccc1)C(C)=O [Example 3, N-(beta-phenethyl)-cis-3-thio-(1-acetylpropan-2-on-1-yl)-acrylamide]
% Control WPM [1]: 0% | MIC [2]: 31 µg/mL (≈ 102 µM) | % Control CDM [3]: 90% | % Control RSB [4]: 0% | % Control WSR ([5]; application rate 300 ppm): 40% | MIC [6]: > 500 µg/mL | % Control TLB ([7]; application rate 300 ppm): 20% | % Control RB ([8]; application rate 200 ppm): 94% | MIC [9]: 250 µg/mL (≈ 819 µM) | MIC [10]: 8 to 16 µg/mL (≈ 26.2 to 52.4 µM) | MIC [11]: 63 to 500 µg/mL (≈ 206 to 1640 µM) | MIC [12]: > 500 µg/mL | MIC [13]: 63 µg/mL (≈ 206 µM)
